Reference: PMC6717735, “Therapeutic Effect of pHLIP-mediated CEACAM6 Gene Silencing in Lung Adenocarcinoma” (Scientific Reports, 2019)

Assays:
A549 tumours [1] = test: A549 xenograft tumour growth; type: in vivo, BALB/c nude mice; conditions: compared with vehicle-treated mice; for reduction in tumour growth: n = 5
Protocol: We first assessed the knockdown efficacy of delivered […]6 in vivo. For in vivo analysis, BALB/c nude mice were subcutaneously injected with 1.2 × 10^7 A549 cells. Two weeks after tumour initiation, […]6 was injected into the mice via the tail vein with saline used as a negative control. To determine the optimal amount of […]6 for injection, two groups of mice (n = 5 mice/group) were injected with different doses (2 mg/kg and 4 mg/kg) twice per week for 3 weeks. Because cisplatin is the backbone of lung cancer treatment, cisplatin-treated mice served as the positive control. […] After 3 weeks of treatment, all mice were sacrificed. Next, we assessed the antitumour effects of concurrent chemotherapy and CEACAM6 targeting. […] According to the in vivo results, a dose of 2 mg/kg […]6 was selected for combination treatment. […] Tumour volume was measured every 2-3 days. […] None of the mice included in the therapeutic experiments experienced overt body weight loss or organ damage over the treatment period (Supplementary Fig. 5a,b). All animal work was performed in accordance with a protocol approved by the Institutional Animal Care and Use Committee of the Korea Research Institute of Bioscience and Biotechnology. A549 cells were subcutaneously injected into the right flanks of 5-week-old BALB/c athymic nude mice (n = 5 mice/group; 1.2 × 10^7 cells/mouse). Tumour growth was determined by measuring the length (L), width (W), and height (H) with callipers and using the formula V = (L × W × H) × 0.5.

A549 tumours [2] = test: Ki-67 immunostaining of xenograft tumours (proliferation); type: in vivo, BALB/c nude mice; conditions: n = 5 tumours/group
Protocol: Mice were killed by carbon dioxide asphyxiation. Staining was performed in formalin-fixed, paraffin-embedded tumour sections (4-μm thickness). Fully automated immunostaining was achieved using a BenchMark XT autostainer (Ventana Medical Systems Inc., Tucson, AZ, USA). The following antibodies were used: monoclonal mouse anti-human CEACAM6 (9A6, 1:4,000; Santa Cruz Biotechnology Inc.), anti-CC3 (1:100, BioCare Medical, Pacheco, CA, USA), and anti-Ki-67 (1:100, VP-K452; Vector Laboratory, Burlington, Canada). The number of positive cells per tumour area was quantified.

N.N.[Cl][Pt][Cl] [cisplatin]
reduction in tumour growth (A549 tumours [1]; 2 mg/kg intraperitoneally 3 times/week for 3 weeks): 46.7% | reduction in tumour growth (A549 tumours [1]; 2 mg/kg intraperitoneally twice/week for 3 weeks): 35.0% | reduction in tumour volume (A549 tumours [1]; combination study: pHLIP-siCEACAM6 2 mg/kg via tail vein, cisplatin intraperitoneally, twice per week for 3 weeks, n = 5 mice/group): 29.9% | cell proliferation in tumours (Ki-67 staining) (A549 tumours [2]; combination study, after 3 weeks of systemic therapy): 18.4% | proliferation level (Ki-67 staining) (A549 tumours [2]; single-agent study, tumours harvested after 3 weeks): 11.2%
